According to patent US20240150347A1, “INHIBITING CYCLIC AMP-RESPONSIVE ELEMENT-BINDING PROTEIN (CREB) BINDING PROTEIN (CBP)” (FORMATherapeutics,Inc., priority 2020, published 2024):
Where a name gives a salt, the structure may show the parent alone.

Experiments:
panel of 10 bromodomains = experiment: AlphaScreen panel of 10 BRD; type: binding; settings: 10 BRD of various branches of the bromodomain tree
[1] = system: human kinases and disease-relevant mutant variants; experiment: KINOMEscan screen for kinase inhibition; type: binding
[2] = Dynamic vapor sorption (hygroscopicity); type: physicochemical; settings: relative humidity of up to 80%, dynamic vapor sorption isotherm plots
Text: Dynamic Vapor Sorption (DVS) data were collected with a SMS DVS Intrinsic from Surface Measurement Systems.

Compound | activity against panel of 10 bromodomains (panel of 10 bromodomains) | binding affinity for human kinases and disease-relevant mutant variants [1] | water uptake [2] [%]
COC(=O)N1c2ccc3c(nc([C@H](O)c4cc(F)ccc4OC)n3[C@@H]3CCC[C@@H](C(=O)O)C3)c2CC[C@@H]1C [Compound 1, (1R,3R)-3-[(7S)-2-[(R)-(5-fluoro-2-methoxyphenyl)(hydroxy)methyl]-6-(methoxycarbonyl)-7-methyl-3H,6H,7H,8H,9H-imidazo[4,5-f]quinolin-3-yl]cyclohexane-1-carboxylic acid] | inactive against 8 | no to low binding affinity | –
COC(=O)N1c2ccc3c(nc([C@H](O)c4cc(F)ccc4OC)n3[C@@H]3CCC[C@@H](C(=O)O)C3)c2CC[C@@H]1C [HCl type A salt, (1R,3R)-3-((S)-2-((R)-(5-fluoro-2-methoxyphenyl)(hydroxy)methyl)-6-(methoxycarbonyl)-7-methyl-6,7,8,9-tetrahydro-3H-imidazo [4,5-f]quinolin-3-yl)cyclohexane-1-carboxylic acid] | – | – | 6.3
COC(=O)N1c2ccc3c(nc([C@H](O)c4cc(F)ccc4OC)n3[C@@H]3CCC[C@@H](C(=O)O)C3)c2CC[C@@H]1C [type B p-toluenesulfonic acid addition salt] | – | – | 2.1
